Laboratory results: patent EP0327492A1, “Herbicidally and plantgrowth regulatory active quinoline and pyrindine compounds” (CIBA-GEIGY AG, priority 1988, dated 1989)

Tests used:
Format in all cases: in vivo
Solanum nigrum [1] = experiment: Pre-emergent herbicidal action (B.2); conditions: 500 bis 2000 [g/ha], evaluated after 3 weeks
Procedure: (§1) Im Gewächshaus wird unmittelbar nach der Einsaat der Versuchspflanzen in Saatschalen die Erdoberfläche mit einer wässrigen Dispersion der Wirkstoffe, erhalten aus einem 25 %igen Emulsionskonzentrat behandelt. Es werden Konzentrationen von 2000-500 g Wirksubstanz/Hektar angewendet. Die Saatschalen werden im Gewächshaus bei 22-25° C und 50-70 % relativer Luftfeuchtigkeit gehalten und der Versuch nach 3 Wochen ausgewertet und die Resultate nach folgender Notenskala ausgewertet. • 1 Pflanze hat nicht gekeimt oder ist eingegangen • 2-3 sehr starke Schäden • 4 starke Schäden • 5 mittlere Schäden, die Pflanzen sind verkümmert • 6 Schäden, die Pflanze kann regenerieren • 7-8 leichte Schäden • 9 normales Wachstum, wie das unbehandelter Pflanzen
(§2) Boniturnoten von 1 bis 4 (insbesondere von 1 bis 3) weisen auf eine gute bis sehr gute Herbizidwirkung hin. Boniturnoten von 6 bis 9 (insbesondere 7 bis 9) weisen auf eine gute Toleranz (insbesondere bei Kulturpflanzen) hin.

Avena fatua [2] = experiment: Pre-emergent herbicidal action (B.2); conditions: 500 bis 2000 [g/ha], evaluated after 3 weeks
Procedure: as §1, §2

Bromus tectorum [3] = experiment: Pre-emergent herbicidal action (B.2); conditions: 500 bis 2000 [g/ha], evaluated after 3 weeks
Procedure: as §1, §2

Stellaria [4] = experiment: Pre-emergent herbicidal action (B.2); conditions: 500 bis 2000 [g/ha], evaluated after 3 weeks
Procedure: as §1, §2

Abutilon [5] = experiment: Pre-emergent herbicidal action (B.2); conditions: 500 bis 2000 [g/ha], evaluated after 3 weeks
Procedure: as §1, §2

Galium aparine [6] = experiment: Pre-emergent herbicidal action (B.2); conditions: 500 bis 2000 [g/ha], evaluated after 3 weeks
Procedure: as §1, §2

Alopecurus myos. [7] = experiment: Pre-emergent herbicidal action (B.2); conditions: 500 bis 2000 [g/ha], evaluated after 3 weeks
Procedure: as §1, §2

Sinapis [8] = experiment: Pre-emergent herbicidal action (B.2); conditions: 500 bis 2000 [g/ha], evaluated after 3 weeks
Procedure: as §1, §2

Digitaria sang. [9] = experiment: Pre-emergent herbicidal action (B.2); conditions: 500 bis 2000 [g/ha], evaluated after 3 weeks
Procedure: as §1, §2

Ipomoea = experiment: Pre-emergent herbicidal action (B.2); conditions: 500 bis 2000 [g/ha], evaluated after 3 weeks
Procedure: as §1, §2

Veronica Sp. [10] = experiment: Pre-emergent herbicidal action (B.2); conditions: 500 bis 2000 [g/ha], evaluated after 3 weeks
Procedure: as §1, §2

Echinochloa crus galli [11] = experiment: Pre-emergent herbicidal action (B.2); conditions: 500 bis 2000 [g/ha], evaluated after 3 weeks
Procedure: as §1, §2

Sorghum halep. [12] = experiment: Pre-emergent herbicidal action (B.2); conditions: 500 bis 2000 [g/ha], evaluated after 3 weeks
Procedure: as §1, §2

Chrysanthe. leuc. [13] = experiment: Pre-emergent herbicidal action (B.2); conditions: 500 bis 2000 [g/ha], evaluated after 3 weeks
Procedure: as §1, §2

Lolium perenne [14] = experiment: Pre-emergent herbicidal action (B.2); conditions: 500 bis 2000 [g/ha], evaluated after 3 weeks
Procedure: as §1, §2

Amaranthus ret. [15] = experiment: Pre-emergent herbicidal action (B.2); conditions: 500 bis 2000 [g/ha], evaluated after 3 weeks
Procedure: as §1, §2

Chenopodium Sp. [16] = experiment: Pre-emergent herbicidal action (B.2); conditions: 500 bis 2000 [g/ha], evaluated after 3 weeks
Procedure: as §1, §2

Solanum nigrum [17] = experiment: Post-emergent herbicidal action, contact herbicide (B.3); conditions: 500 bis 2000 [g/ha], 15 days after treatment
Procedure: as §1, §2
(§3) Eine Anzahl Unkräuter, sowohl monokotyle wie dikotyle, werden nach dem Auflaufen (im 4- bis 6-Blattstadium) mit einer wässrigen Wirkstoffdispersion in einer Dosierung von 2000-500 g Wirksubstanz pro Hektar auf die Pflanzen gespritzt und diese bei 24°-26°C und 45-60 % relativer Luftfeuchtigkeit gehalten. 15 Tage nach der Behandlung wird der Versuch nach dem in Beispiel B.2. gegebenen Massstab bewertet.

Avena fatua [18] = experiment: as above; conditions: 500 bis 2000 [g/ha], 15 days after treatment
Procedure: as §1, §2, §3

Bromus tectorum [19] = experiment: as above; conditions: 500 bis 2000 [g/ha], 15 days after treatment
Procedure: as §1, §2, §3

Stellaria [20] = experiment: as above; conditions: 500 bis 2000 [g/ha], 15 days after treatment
Procedure: as §1, §2, §3

Abutilon [21] = experiment: as above; conditions: 500 bis 2000 [g/ha], 15 days after treatment
Procedure: as §1, §2, §3

Galium aparine [22] = experiment: as above; conditions: 500 bis 2000 [g/ha], 15 days after treatment
Procedure: as §1, §2, §3

Alopecurus myos. [23] = experiment: as above; conditions: 500 bis 2000 [g/ha], 15 days after treatment
Procedure: as §1, §2, §3

Sinapis [24] = experiment: as above; conditions: 500 bis 2000 [g/ha], 15 days after treatment
Procedure: as §1, §2, §3

Digitaria sang. [25] = experiment: as above; conditions: 500 bis 2000 [g/ha], 15 days after treatment
Procedure: as §1, §2, §3

Veronica Sp. [26] = experiment: as above; conditions: 500 bis 2000 [g/ha], 15 days after treatment
Procedure: as §1, §2, §3

Echinochloa crus galli [27] = experiment: as above; conditions: 500 bis 2000 [g/ha], 15 days after treatment
Procedure: as §1, §2, §3

Sorghum halep. [28] = experiment: as above; conditions: 500 bis 2000 [g/ha], 15 days after treatment
Procedure: as §1, §2, §3

Chrysanthe. leuc. [29] = experiment: as above; conditions: 500 bis 2000 [g/ha], 15 days after treatment
Procedure: as §1, §2, §3

Xanthium Sp. = experiment: as above; conditions: 500 bis 2000 [g/ha], 15 days after treatment
Procedure: as §1, §2, §3

Lolium perenne [30] = experiment: as above; conditions: 500 bis 2000 [g/ha], 15 days after treatment
Procedure: as §1, §2, §3

Amaranthus ret. [31] = experiment: as above; conditions: 500 bis 2000 [g/ha], 15 days after treatment
Procedure: as §1, §2, §3

Chenopodium Sp. [32] = experiment: as above; conditions: 500 bis 2000 [g/ha], 15 days after treatment
Procedure: as §1, §2, §3

SMILES: CC1CCc2nc3c(cc2C1)C(=O)N1C(=O)C(C)(C(C)C)N=C31 (stereo not shown) [Verbindung 3.01, 2,8-Dimethyl-2-isopropyl-7,8,9,10-tetrahydro-3H,5H-imidazo[1',2':1,2]pyrrolo[3,4-b]chinolin-3,5-dion]
- Herbizidwirkung (Solanum nigrum [1]): gute bis sehr gute Herbizidwirkung (Boniturnoten von 1 bis 4 (insbesondere von 1 bis 3) weisen auf eine gute bis sehr gute Herbizidwirkung hin)
- Herbizidwirkung (Avena fatua [2]): gute bis sehr gute Herbizidwirkung (Boniturnoten von 1 bis 4 (insbesondere von 1 bis 3) weisen auf eine gute bis sehr gute Herbizidwirkung hin)
- Herbizidwirkung (Bromus tectorum [3]): gute bis sehr gute Herbizidwirkung (Boniturnoten von 1 bis 4 (insbesondere von 1 bis 3) weisen auf eine gute bis sehr gute Herbizidwirkung hin)
- Herbizidwirkung (Stellaria [4]): gute bis sehr gute Herbizidwirkung (Boniturnoten von 1 bis 4 (insbesondere von 1 bis 3) weisen auf eine gute bis sehr gute Herbizidwirkung hin)
- Herbizidwirkung (Abutilon [5]): gute bis sehr gute Herbizidwirkung (Boniturnoten von 1 bis 4 (insbesondere von 1 bis 3) weisen auf eine gute bis sehr gute Herbizidwirkung hin)
- Herbizidwirkung (Galium aparine [6]): gute bis sehr gute Herbizidwirkung (Boniturnoten von 1 bis 4 (insbesondere von 1 bis 3) weisen auf eine gute bis sehr gute Herbizidwirkung hin)
- Herbizidwirkung (Alopecurus myos. [7]): gute bis sehr gute Herbizidwirkung (Boniturnoten von 1 bis 4 (insbesondere von 1 bis 3) weisen auf eine gute bis sehr gute Herbizidwirkung hin)
- Herbizidwirkung (Sinapis [8]): gute bis sehr gute Herbizidwirkung (Boniturnoten von 1 bis 4 (insbesondere von 1 bis 3) weisen auf eine gute bis sehr gute Herbizidwirkung hin)
- Herbizidwirkung (Digitaria sang. [9]): gute bis sehr gute Herbizidwirkung (Boniturnoten von 1 bis 4 (insbesondere von 1 bis 3) weisen auf eine gute bis sehr gute Herbizidwirkung hin)
- Herbizidwirkung (Ipomoea): gute bis sehr gute Herbizidwirkung (Boniturnoten von 1 bis 4 (insbesondere von 1 bis 3) weisen auf eine gute bis sehr gute Herbizidwirkung hin)
- Herbizidwirkung (Veronica Sp. [10]): gute bis sehr gute Herbizidwirkung (Boniturnoten von 1 bis 4 (insbesondere von 1 bis 3) weisen auf eine gute bis sehr gute Herbizidwirkung hin)
- Herbizidwirkung (Echinochloa crus galli [11]): gute bis sehr gute Herbizidwirkung (Boniturnoten von 1 bis 4 (insbesondere von 1 bis 3) weisen auf eine gute bis sehr gute Herbizidwirkung hin)
- Herbizidwirkung (Sorghum halep. [12]): gute bis sehr gute Herbizidwirkung (Boniturnoten von 1 bis 4 (insbesondere von 1 bis 3) weisen auf eine gute bis sehr gute Herbizidwirkung hin)
- Herbizidwirkung (Chrysanthe. leuc. [13]): gute bis sehr gute Herbizidwirkung (Boniturnoten von 1 bis 4 (insbesondere von 1 bis 3) weisen auf eine gute bis sehr gute Herbizidwirkung hin)
- Herbizidwirkung (Lolium perenne [14]): gute bis sehr gute Herbizidwirkung (Boniturnoten von 1 bis 4 (insbesondere von 1 bis 3) weisen auf eine gute bis sehr gute Herbizidwirkung hin)
- Herbizidwirkung (Amaranthus ret. [15]): gute bis sehr gute Herbizidwirkung (Boniturnoten von 1 bis 4 (insbesondere von 1 bis 3) weisen auf eine gute bis sehr gute Herbizidwirkung hin)
- Herbizidwirkung (Chenopodium Sp. [16]): gute bis sehr gute Herbizidwirkung (Boniturnoten von 1 bis 4 (insbesondere von 1 bis 3) weisen auf eine gute bis sehr gute Herbizidwirkung hin)
- Herbizidwirkung (Solanum nigrum [17]): gute bis sehr gute Herbizidwirkung (Boniturnoten von 1 bis 4 (insbesondere von 1 bis 3) weisen auf eine gute bis sehr gute Herbizidwirkung hin)
- Herbizidwirkung (Avena fatua [18]): gute bis sehr gute Herbizidwirkung (Boniturnoten von 1 bis 4 (insbesondere von 1 bis 3) weisen auf eine gute bis sehr gute Herbizidwirkung hin)
- Herbizidwirkung (Bromus tectorum [19]): gute bis sehr gute Herbizidwirkung (Boniturnoten von 1 bis 4 (insbesondere von 1 bis 3) weisen auf eine gute bis sehr gute Herbizidwirkung hin)
- Herbizidwirkung (Stellaria [20]): gute bis sehr gute Herbizidwirkung (Boniturnoten von 1 bis 4 (insbesondere von 1 bis 3) weisen auf eine gute bis sehr gute Herbizidwirkung hin)
- Herbizidwirkung (Abutilon [21]): gute bis sehr gute Herbizidwirkung (Boniturnoten von 1 bis 4 (insbesondere von 1 bis 3) weisen auf eine gute bis sehr gute Herbizidwirkung hin)
- Herbizidwirkung (Galium aparine [22]): gute bis sehr gute Herbizidwirkung (Boniturnoten von 1 bis 4 (insbesondere von 1 bis 3) weisen auf eine gute bis sehr gute Herbizidwirkung hin)
- Herbizidwirkung (Alopecurus myos. [23]): gute bis sehr gute Herbizidwirkung (Boniturnoten von 1 bis 4 (insbesondere von 1 bis 3) weisen auf eine gute bis sehr gute Herbizidwirkung hin)
- Herbizidwirkung (Sinapis [24]): gute bis sehr gute Herbizidwirkung (Boniturnoten von 1 bis 4 (insbesondere von 1 bis 3) weisen auf eine gute bis sehr gute Herbizidwirkung hin)
- Herbizidwirkung (Digitaria sang. [25]): gute bis sehr gute Herbizidwirkung (Boniturnoten von 1 bis 4 (insbesondere von 1 bis 3) weisen auf eine gute bis sehr gute Herbizidwirkung hin)
- Herbizidwirkung (Veronica Sp. [26]): gute bis sehr gute Herbizidwirkung (Boniturnoten von 1 bis 4 (insbesondere von 1 bis 3) weisen auf eine gute bis sehr gute Herbizidwirkung hin)
- Herbizidwirkung (Echinochloa crus galli [27]): gute bis sehr gute Herbizidwirkung (Boniturnoten von 1 bis 4 (insbesondere von 1 bis 3) weisen auf eine gute bis sehr gute Herbizidwirkung hin)
- Herbizidwirkung (Sorghum halep. [28]): gute bis sehr gute Herbizidwirkung (Boniturnoten von 1 bis 4 (insbesondere von 1 bis 3) weisen auf eine gute bis sehr gute Herbizidwirkung hin)
- Herbizidwirkung (Chrysanthe. leuc. [29]): gute bis sehr gute Herbizidwirkung (Boniturnoten von 1 bis 4 (insbesondere von 1 bis 3) weisen auf eine gute bis sehr gute Herbizidwirkung hin)
- Herbizidwirkung (Xanthium Sp.): gute bis sehr gute Herbizidwirkung (Boniturnoten von 1 bis 4 (insbesondere von 1 bis 3) weisen auf eine gute bis sehr gute Herbizidwirkung hin)
- Herbizidwirkung (Lolium perenne [30]): gute bis sehr gute Herbizidwirkung (Boniturnoten von 1 bis 4 (insbesondere von 1 bis 3) weisen auf eine gute bis sehr gute Herbizidwirkung hin)
- Herbizidwirkung (Amaranthus ret. [31]): gute bis sehr gute Herbizidwirkung (Boniturnoten von 1 bis 4 (insbesondere von 1 bis 3) weisen auf eine gute bis sehr gute Herbizidwirkung hin)
- Herbizidwirkung (Chenopodium Sp. [32]): gute bis sehr gute Herbizidwirkung (Boniturnoten von 1 bis 4 (insbesondere von 1 bis 3) weisen auf eine gute bis sehr gute Herbizidwirkung hin)
